# Assay results published in US8673880B2, “Prevention and/or treatment of neurodegenerative disorders” (The University Of Liverpool, priority 2006, dated 2014).
# What was measured:
# Type in all cases: biochemical
# recombinant human BACE-1 = target: T1, recombinant human BACE-1 (Homo sapiens, UniProt P56817); assay: BACE-1 inhibition by in vitro FRET peptide cleavage assay; conditions: for IC50 (BACE-1): FRET peptide cleavage; for Therapeutic ratio (BACE/Xa): calculated from IC50 against BACE-1/anticoagulant activity; for EC50 (BACE inhibition): Example 2, Table 2
# T1 construct: purchased Sigma
# Method: In vitro cleavage of APP by BACE-1 was measured using a FRET peptide cleavage assay.
# The ability of the compounds to inhibit BACE-1 cleavage of APP was assessed using a fluorescent resonance energy transfer (FRET) peptide cleavage assay employing the FRET peptide 5-FAM-Glu-Val-Asn-Leu-Asp-Ala-Phe-Lys(QXL520)-OH, containing the Swedish amino acid variant (Anaspec, Inc., CA, USA). When intact, the amino terminal fluorophore is quenched, but upon enzymatic cleavage the fluorophore is released from quencher and fluoresces (520 nm). Assays were performed in triplicate in 96 well black plates (20 mM sodium acetate, 0.1% Triton-X-100, pH 4.5; 2.5 μM peptide per well and 4.0×10^−3 units/well of recombinant human BACE-1 (Sigma)). The appropriate controls for enzyme activity and background fluorescence were employed and plates were incubated (1 h, 25° C., stopped with 2.5 M sodium acetate) Inhibitors were added in a concentration range from 1000-0.0001 μg/ml. Fluorescence 480ex/520em was measured on a Polarstar plate reader (BMG LabTechnologies, UK) and data were analysed by plotting log10 concentration of inhibitor against percent inhibition and fitting a four parameter sigmoidal curve using BioDataFit 1.02 (Chang Bioscience, USA).
# Factor Xa = assay: Anti Factor Xa (anticoagulant) activity, Coatest Heparin test kit; conditions: for Anti-coagulant activity: anti-factor Xa, percentage of PIMH (defined as 100%); for Anticoagulant activity (%): Example 2, Table 2, standard heparin = 100
# Method: Anti Factor Xa activity was measured against a porcine mucosal heparin (PIMH) standard of known activity (Sigma, UK) using a diagnostic grade Coatest Heparin test kit (Chromogenix, MA, USA), adapted to a 96 well plate format, reading A405 (Polarstar plate reader (BMG LabTechnologies, UK)).
# cathepsin D = target: T2, cathepsin D (Homo sapiens, UniProt P07339); assay: Cathepsin D FRET cleavage assay
# T2 construct: purchased Sigma, UK
# Method: (§1) The ability of compounds to inhibit the structurally related proteases pepsin and cathepsin D (Sigma, UK) was measured by FRET cleavage assay (5 pmol enzyme/well, EnzChek Protease Assay kit (Molecular Probes, UK) according to manufacturer's instructions). Activity against human recombinant renin (Cayman Chemical, MI, USA), was measured by FRET peptide cleavage assay (0.08 pMoles enzyme/well, using the Renin Substrate 1 (Molecular Probes, Invitrogen, UK) according to manufacturer's instructions. IC50 values were calculated as described above.
# human recombinant renin = target: T3, human recombinant renin (Homo sapiens, UniProt P00797); assay: Renin FRET peptide cleavage assay; conditions: concentrations up to 1000 μg/ml
# T3 construct: purchased Cayman Chemical
# T3 sequence (P00797 67-406): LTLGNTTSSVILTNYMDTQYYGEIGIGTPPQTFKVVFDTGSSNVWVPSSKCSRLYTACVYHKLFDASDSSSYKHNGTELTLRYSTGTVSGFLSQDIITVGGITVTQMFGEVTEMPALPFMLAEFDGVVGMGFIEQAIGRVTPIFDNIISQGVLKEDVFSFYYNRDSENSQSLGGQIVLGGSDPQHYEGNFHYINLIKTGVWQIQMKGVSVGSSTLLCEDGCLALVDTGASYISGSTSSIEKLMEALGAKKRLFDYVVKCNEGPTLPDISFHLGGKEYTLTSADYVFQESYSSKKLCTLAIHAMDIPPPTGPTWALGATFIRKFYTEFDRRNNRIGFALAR
# Method: as §1
# [1] = target: T4, Aβ peptide (Amyloid β Protein Fragment 1-42) (Homo sapiens, UniProt P05067); assay: Aβ aggregation assay (Thioflavin T); conditions: for increase in the time taken to reach half-maximal peptide aggregation: concentration of 100 μg/ml, compared to parental PMH; for rate of A-β aggregation, % slower: compared to intact heparin
# T4 construct: Amyloid β Protein Fragment 1-42; Sigma A9810; purchased Sigma A9810
# Method: The Aβ peptide was prepared by addition of 1 ml of hexafluoro-2-propanol to 1 mg Aβ peptide (Amyloid β Protein Fragment 1-42; Sigma A9810) and disaggregation at room temperature for 1 hour. The resulting material was divided into 50 μl (50 μg) aliquots and dried in Speed Vac for approximately 2 hours, followed by storage at −20° C. The Thioflavin T (Sigma T-3516) solution was prepared as a 5 mM solution in 50 mM Glycine-NaOH pH 8.5, and stored in the dark at 4° C. Thioflavin T assay buffer comprising 20 μl Thioflavin T solution with 50 μl 1M DTT and […] assay Buffer (10 mM HEPES/100 mM NaCl pH 7.4) was kept on ice. 50 μl of 20 mM NaOH was added to 50 μg of Aβ peptide. 2.5 ml of Thioflavin T assay buffer was then added to this Aβ peptide solution, making “Aβ buffer”. The remaining 2.5 ml of Thioflavin T assay buffer was the blank buffer, and both were kept on ice. Six replicates of sample dilutions (1:1 in assay buffer) were pipetted into a 96 well black plate (Greiner 655076; 100 μl/well) and the plate was kept on ice. 100 μl/well of Aβ buffer was added to the samples (in triplicate), and 100 μl/well of the blank buffer added to a further three sample replicates. The 96 well plate was read (450 nm excitation wavelength and 490 nm emission wavelength), taking a reading every 150 seconds for 250 cycles one plate reader set at 37° C.
# pepsin = target: T5, pepsin (Sus scrofa, UniProt P00791); assay: Pepsin FRET cleavage assay
# T5 construct: purchased Sigma, UK
# Method: as §1
# T2 sequence (P07339 65-412, species assumed): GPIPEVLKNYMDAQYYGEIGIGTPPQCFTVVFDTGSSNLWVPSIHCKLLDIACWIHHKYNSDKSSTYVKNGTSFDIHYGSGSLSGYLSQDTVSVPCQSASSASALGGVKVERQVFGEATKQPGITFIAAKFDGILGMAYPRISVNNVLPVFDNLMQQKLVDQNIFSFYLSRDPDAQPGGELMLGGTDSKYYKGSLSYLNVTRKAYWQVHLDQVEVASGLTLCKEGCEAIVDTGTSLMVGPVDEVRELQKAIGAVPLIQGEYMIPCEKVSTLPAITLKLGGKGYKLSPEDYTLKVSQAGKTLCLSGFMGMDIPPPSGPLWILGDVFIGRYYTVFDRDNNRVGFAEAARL
# T5 sequence (P00791 60-385): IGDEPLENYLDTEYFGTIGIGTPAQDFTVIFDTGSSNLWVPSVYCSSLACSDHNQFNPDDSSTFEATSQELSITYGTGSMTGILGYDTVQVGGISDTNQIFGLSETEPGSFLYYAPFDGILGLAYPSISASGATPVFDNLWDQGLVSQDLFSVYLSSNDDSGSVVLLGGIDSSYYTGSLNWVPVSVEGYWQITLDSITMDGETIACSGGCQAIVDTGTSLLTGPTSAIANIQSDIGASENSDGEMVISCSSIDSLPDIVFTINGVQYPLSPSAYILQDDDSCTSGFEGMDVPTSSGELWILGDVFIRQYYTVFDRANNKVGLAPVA
# T4 sequence (P05067 672-713): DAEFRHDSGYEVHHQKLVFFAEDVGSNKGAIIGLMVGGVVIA
# T1 sequence (P56817 46-501): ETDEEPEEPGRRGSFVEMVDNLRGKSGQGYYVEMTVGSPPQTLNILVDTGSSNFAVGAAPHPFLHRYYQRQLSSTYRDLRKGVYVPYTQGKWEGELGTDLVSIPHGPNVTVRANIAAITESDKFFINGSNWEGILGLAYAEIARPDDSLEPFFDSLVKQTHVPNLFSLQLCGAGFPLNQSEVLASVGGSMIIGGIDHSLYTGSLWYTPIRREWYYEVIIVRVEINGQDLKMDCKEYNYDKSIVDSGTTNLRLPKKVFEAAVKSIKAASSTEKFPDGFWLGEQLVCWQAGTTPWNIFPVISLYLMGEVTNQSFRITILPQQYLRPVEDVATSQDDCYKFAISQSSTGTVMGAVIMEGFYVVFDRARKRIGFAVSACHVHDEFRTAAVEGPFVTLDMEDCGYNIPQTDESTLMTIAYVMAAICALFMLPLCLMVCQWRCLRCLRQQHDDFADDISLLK
Compound,IC50 (BACE-1) (recombinant human BACE-1; Table 1),Therapeutic ratio (BACE/Xa) (recombinant human BACE-1),Anti-coagulant activity (Factor Xa) [%],IC50 against cathepsin D (cathepsin D) [µg/mL],inhibitory effect on renin (human recombinant renin),increase in the time taken to reach half-maximal peptide aggregation [1] [%],IC50 against pepsin (pepsin) [µg/mL],further results
6-O-desulphated heparin [Compound 5],0.100 μg/ml,61,0.5,–,–,–,–,–
"6-O-desulphated, 2-O-desulphated heparin [Compound 7]",0.786 μg/ml,123,0.03,–,–,–,–,–
"6-O-desulphated, 2-O-desulphated, N-acetylated heparin [Compound 8]",>100 μg/ml,1,0.03,–,–,–,–,BACE-1 inhibitory activity in words (recombinant human BACE-1; Table 1): almost abolished
"6-O-desulphated, N-acetylated heparin [Compound 6]",0.410 μg/ml,237,0.03,–,–,–,–,–
"NCCCS(=O)(=O)O [Compound 10, 3-amino-1-propanesulfonic acid, reference compound]",No,–,–,–,–,–,–,inhibition of BACE-1 (recombinant human BACE-1; even at high concentrations (1000 μg/ml)): did not inhibit BACE-1
Ido 2-de-O-sulphated heparin [Compound 3],0.053 μg/ml,147,0.4,0.77,None of the compounds exerted an inhibitory effect on renin,50,–,–
"Ido 2-de-O-sulphated, N-acetylated heparin [Compound 4]",0.091 μg/ml,1092,0.03,–,None of the compounds exerted an inhibitory effect on renin,100,> 1000,"EC50 fold lower than unmodified PMH (recombinant human BACE-1; Example 2): approximately 3 fold; EC50 (BACE inhibition) (recombinant human BACE-1): 0.089 µg/mL; anti factor Xa activity, fold lower than PIMH (Factor Xa; Example 1): at least 3000 fold; Anticoagulant activity (%) (Factor Xa): <0.03%; rate of A-β aggregation, % slower ([1]; FIG. 2): 100%"
N-acetyl heparin [Compound 2],0.031 μg/ml,3136,0.03,0.27,None of the compounds exerted an inhibitory effect on renin,50,3.27,"fold less potent than PIMH against pepsin (pepsin; compared with compound 1): 14 fold; rate of A-β aggregation, % slower ([1]; FIG. 2): 50%"
Per-sulphated heparin [Compound 9],0.053 μg/ml,2,35.0,–,–,–,–,–
"porcine intestinal mucosal heparin [Compound 1, reference compound]",0.028 μg/ml,1,100,0.1,None of the compounds exerted an inhibitory effect on renin,–,0.23,EC50 (BACE inhibition) (recombinant human BACE-1): 0.027 µg/mL; Anticoagulant activity (%) (Factor Xa): 100%; enhancement of Aβ aggregation ([1]; FIG. 2): maximum enhancement
